According to patent US4868204A, “Mycalamide compounds, compositions thereof and methods of preparation and use” (Harbor Branch Oceanographic Institution, Inc., priority 1988, dated 1989):
Like-named read-outs stand apart in the source and are kept apart here.

What was measured:
[1] = tested on: polio vaccine virus Type I (PVI); type: cell-based
P388 mouse leukemia cell = assay: in vitro P388 mouse leukemia cell assay; type: cell-based; conditions: 50% inhibition of cell replication vs untreated cultures
Description: Antitumor effectiveness of the compounds of the invention was evaluated using a standardized in vitro P388 mouse leukemia cell assay protocol disclosed in U.S. Pat. No. 4,731,366 with the antitumor activity being expressed in IC50 (concentration that results in 50% inhibition of cell replication normalized to untreated cultures) determined with a log-log transform of data and expressed as xx ng/ml. As an example, for mycalamide A the P388 assay value was […]

HSV = type: cell-based, Herpes simplex type 1 virus
antimitotic activity = conditions: British Pat. Nos. 1,078,049 and 932,875; cited from earlier work
mice = conditions: mouse, in vivo
P338 tumor = assay: in vivo P388 tumor procedure in mice (% T/C)
Description: (§1) Antitumor effectiveness of mycalamide A was also evaluated using a standardized in vivo procedure by injecting mice with the test material starting 24 hours after P338 tumor implantation. A T/C value is calculated using the formula % T/C=Median survival of test group/Median survival of control group×100%, A T/C value above 130% is considered significant.

B16 murine melanoma = assay: in vivo B16 murine melanoma assay
Description: as §1
In vivo antitumor activity of mycalamide A was also tested with an B16 murine melanoma assay resulting in the following data: […]

A59 = tested on: A59; set-up: species or system mice; conditions: mouse, in vivo, 0.1 mg/kg

## C=C1CC(OC)(C(OC(=O)CC)C(=O)NC2OCOC3C2OC(CC(COC(=O)CC)OC(=O)CC)C(C)(C)C3OC)OC(C)C1C (stereo not drawn) [Example 8, Mycalamide A Tripropanoate]
[1]
  AV assay, PVI: 4+ and -
BSC cells
  AV assay, cytotoxicity: -
P388 mouse leukemia cell
  P388 IC50: 85.6 ng/mL

## C=C1CC(OC)(C(O[Si](C)(C)C)C(=O)NC2OCOC3C2OC(CC(CO[Si](C)(C)C)OC)C(C)(C)C3OC)OC(C)C1C (stereo not drawn) [Example 18, Mycalamide B bis-trimethylsilylether]
P388 mouse leukemia cell
  P388 IC50: 0.19 ng/mL

## COC1C2OCOC(NC(=O)C(O)C3(OC)CC(C)C(C)C(C)O3)C2OC(CC(O)CO)C1(C)C (stereo not drawn) [Example 19, 4α-Dihydro mycalamide A]
P388 mouse leukemia cell
  P388 IC50: 2.3 ng/mL
HSV
  AV assay, HSV: 4+ and -

## C=C1CC(O)(C(O)C(=O)NC2OCOC3C2OC(CC(O)CO)C(C)(C)C3OC)OC(C)C1C (stereo not drawn) [Example 28, Pseudomycalamide A]
[1]
  AV assay, PVI: 4+
P388 mouse leukemia cell
  P388 IC50: 23 ng/mL
HSV
  AV assay, HSV: 4+

## C=C1C[C@](OC)([C@H](O)C(=O)N[C@@H](OC)[C@@H]2C[C@@H](O)C(C)(C)[C@@H](C[C@@H](COC)OC)O2)O[C@H](C)[C@@H]1C [Pederin, pederin]
Antimitotic activity
  antimitotic activity: shows antimitotic activity

## C=C1C[C@](OC)([C@H](O)C(=O)N[C@H]2OCO[C@H]3[C@@H]2O[C@H](C[C@H](O)CO)C(C)(C)[C@@H]3OC)O[C@H](C)[C@@H]1C [mycalamide A, Mycalamide A]
mice; 0.01 mg/kg, 48 h
  Cumulative mortality: 0%
mice; 0.01 mg/kg, 96 h
  Cumulative mortality: 0%
mice; 0.01 mg/kg, 144 h
  Cumulative mortality: 0%
mice; 0.01 mg/kg, 192 h
  Cumulative mortality: 0%
mice; 0.01 mg/kg, 240 h
  Cumulative mortality: 0%
mice; 0.01 mg/kg, 288 h
  Cumulative mortality: 0%
mice; 0.01 mg/kg, 336 h
  Cumulative mortality: 0%
mice; 0.1 mg/kg, 48 h
  Cumulative mortality: 0%
mice; 0.1 mg/kg, 96 h
  Cumulative mortality: 0%
mice; 0.1 mg/kg, 144 h
  Cumulative mortality: 0%
mice; 0.1 mg/kg, 192 h
  Cumulative mortality: 0%
mice; 0.1 mg/kg, 240 h
  Cumulative mortality: 0%
mice; 0.1 mg/kg, 288 h
  Cumulative mortality: 0%
mice; 0.1 mg/kg, 336 h
  Cumulative mortality: 0%
mice; 1 mg/kg, 48 h
  Cumulative mortality: 0%
mice; 1 mg/kg, 96 h
  Cumulative mortality: 0%
mice; 1 mg/kg, 144 h
  Cumulative mortality: 100%
mice; 1 mg/kg, 192 h
  Cumulative mortality: 100%
mice; 1 mg/kg, 240 h
  Cumulative mortality: 100%
mice; 1 mg/kg, 288 h
  Cumulative mortality: 100%
mice; 1 mg/kg, 336 h
  Cumulative mortality: 100%
P388 mouse leukemia cell
  P388 IC50: 1.6 ng/mL
P338 tumor; 0.0012 mg/kg, 2nd series
  Median T/C %: 117%
P338 tumor; 0.0025 mg/kg, 1st series
  Median T/C %: 137%
P338 tumor; 0.0025 mg/kg, 2nd series
  Median T/C %: 122%
P338 tumor; 0.005 mg/kg, 1st series
  Median T/C %: 132%
P338 tumor; 0.005 mg/kg, 2nd series
  Median T/C %: 133%
P338 tumor; 0.01 mg/kg, 1st series
  Median T/C %: 116%
P338 tumor; 0.01 mg/kg, 2nd series
  Median T/C %: 156%
P338 tumor; 0.02 mg/kg, 1st series
  Median T/C %: Toxic
P338 tumor; 0.02 mg/kg, 2nd series
  Median T/C %: 106%
B16 murine melanoma; 0.0625 mg/kg
  Cures: 0
  Median T/C %: 197%
B16 murine melanoma; 0.125 mg/kg
  Cures: 0
  Median T/C %: 189%
B16 murine melanoma; 0.5 mg/kg
  Cures: 0
  Median T/C %: Toxic
A59
  Cumulative mortality: 0%

## C=C1CC(OC)(C(OC(C)=O)C(=O)NC2OCOC3C2OC(CC(COC(C)=O)OC(C)=O)C(C)(C)C3OC)OC(C)C1C (stereo not drawn) [Example 7, Mycalamide A Triacetate]
BSC cells
  AV assay, cytotoxicity: -
P388 mouse leukemia cell
  P388 IC50: 51.9 ng/mL

## COC1C2OCOC(NC(=O)C(O)C3(O)CC(C)C(C)C(C)O3)C2OC(CC(O)CO)C1(C)C (stereo not drawn) [Example 23, 4β-dihydro pseudomycalamide A]
[1]
  AV assay, PVI: 4+
P388 mouse leukemia cell
  P388 IC50: 4.2 ng/mL
HSV
  AV assay, HSV: 4+

## C=C1C[C@](OC)([C@H](O)C(=O)N[C@H]2OCO[C@H]3[C@@H]2O[C@H](C[C@@H](CO)OC)C(C)(C)[C@@H]3OC)O[C@H](C)[C@@H]1C [Example 2, Mycalamide B]
[1]
  AV assay, PVI: 4+ and -
BSC cells
  AV assay, cytotoxicity: -
P388 mouse leukemia cell
  P388 IC50: 0.26 ng/mL
HSV
  AV assay, HSV: 4+ and -

## C=C1CC(OC)(C(O)C(=O)NC2OCOC3C2OC(CC(O)CO[Si](C)(C)C(C)(C)C)C(C)(C)C3OC)OC(C)C1C (stereo not drawn) [Example 16, Mycalamide A 18-mono-t-butyl,dimethylsilylether]
[1]
  AV assay, PVI: 4+ and -
BSC cells
  AV assay, cytotoxicity: -
P388 mouse leukemia cell
  P388 IC50: 28.5 ng/mL
HSV
  AV assay, HSV: 4+ and -

## C=C1CC(O)(C(O)C(=O)NC2OCOC3C2OC(CC(CO)OC)C(C)(C)C3OC)OC(C)C1C (stereo not drawn) [Example 27, Pseudomycalamide B]
[1]
  AV assay, PVI: 4+ and -
BSC cells
  AV assay, cytotoxicity: -
P388 mouse leukemia cell
  P388 IC50: 1.8 ng/mL
HSV
  AV assay, HSV: 4+ and -

## C=C1CC(OC)(C(O)C(=O)NC2OCOC3C2OC(CC(CO[Si](C)(C)C)OC)C(C)(C)C3OC)OC(C)C1C (stereo not drawn) [Example 17, Mycalamide B 18-mono-trimethylsilylether]
[1]
  AV assay, PVI: 4+ and -
BSC cells
  AV assay, cytotoxicity: -
P388 mouse leukemia cell
  P388 IC50: 0.08 ng/mL
HSV
  AV assay, HSV: 4+ and -

## C=C1CC(OC)(C(O)C(=O)NC2OCOC3C2OC(CC(CO[Si](C)(C)C)O[Si](C)(C)C)C(C)(C)C3OC)OC(C)C1C (stereo not drawn) [Example 14, Mycalamide A 17,18-bis-trimethylsilylether]
[1]
  AV assay, PVI: 4+
P388 mouse leukemia cell
  P388 IC50: 1.2 ng/mL
HSV
  AV assay, HSV: 4+
